Patent publication US20140249135A1, “PIM KINASE INHIBITORS AND METHODS OF THEIR USE” (NOVARTIS AG, priority 2007, published 2014)
pIC50: −log10 of the molar value. Read-outs that look alike come from different tables or passages of the source.

How the values were obtained:
Format in all cases: biochemical
Pim2 kinase = Pim2 kinase (Homo sapiens, UniProt Q9P1W9); experiment: Pim2 ATP depletion assay; details: for pIC50: read-out: PIM2 IC50; for IC50: read-out: IC50 (μM) PIM2;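 on all read-outs here: Luciferase-based luminescent readout of ATP remaining after PIM2 phosphorylates a BAD peptide, final 5 nM enzyme, 4 µM ATP, 10 µM peptide, 2.5% DMSO, run to roughly half ATP consumption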
Pim1 kinase = Pim1 kinase (Homo sapiens, UniProt P11309); experiment: Pim1 ATP depletion assay; details: for IC50: read-out: IC50 (μM) PIM1;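 on all read-outs here: Luciferase-luciferin luminescence readout of residual ATP after PIM1 transfers phosphate to a peptide substrate, 40 µM ATP added, reaction run to roughly half ATP consumption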
Pim3 kinase = Pim3 kinase (Homo sapiens, UniProt Q86V86); experiment: Pim3 ATP depletion assay; details: for pIC50: read-out: PIM3 IC50; for IC50: read-out: IC50 (μM) PIM3
[1] = Pim1 ATP depletion assay, read-out: PIM1 IC50

Sequence of Pim2 kinase (Q9P1W9 whole entry): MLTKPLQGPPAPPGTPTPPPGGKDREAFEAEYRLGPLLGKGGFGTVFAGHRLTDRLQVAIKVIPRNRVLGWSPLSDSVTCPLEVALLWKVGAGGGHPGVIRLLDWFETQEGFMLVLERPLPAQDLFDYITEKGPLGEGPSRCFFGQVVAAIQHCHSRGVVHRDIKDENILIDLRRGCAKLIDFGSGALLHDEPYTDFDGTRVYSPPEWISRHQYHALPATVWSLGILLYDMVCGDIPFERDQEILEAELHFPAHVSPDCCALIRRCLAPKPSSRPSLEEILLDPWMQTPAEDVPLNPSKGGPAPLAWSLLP
Sequence of Pim1 kinase (P11309 whole entry): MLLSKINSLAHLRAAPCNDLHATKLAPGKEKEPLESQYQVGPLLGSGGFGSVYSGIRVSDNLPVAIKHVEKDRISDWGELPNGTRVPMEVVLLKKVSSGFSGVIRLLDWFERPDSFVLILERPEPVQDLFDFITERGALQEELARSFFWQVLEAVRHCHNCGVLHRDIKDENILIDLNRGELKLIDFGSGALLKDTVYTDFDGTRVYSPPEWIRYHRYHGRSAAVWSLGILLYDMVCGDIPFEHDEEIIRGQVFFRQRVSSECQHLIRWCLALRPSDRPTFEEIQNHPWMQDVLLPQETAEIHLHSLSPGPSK

| SMILES | pIC50 (Pim2 kinase) | pIC50 (Pim1 kinase; [1]) | pIC50 (Pim3 kinase) | IC50 (Pim2 kinase) | IC50 (Pim1 kinase; Pim1 ATP depletion assay) | IC50 (Pim3 kinase) | pIC50 (Pim1 kinase) |
| --- | --- | --- | --- | --- | --- | --- | --- |
| Nc1ccc(-c2c(F)cccc2F)nc1C(=O)Nc1cnccc1-c1cccnc1N [Example 630, 3-amino-N-(2-amino-3,4′-bipyridin-3′-yl)-6-(2,6-difluorophenyl)pyridine-2-carboxamide] | > 6.00 | > 6.00 | > 6.00 |  |  |  |  |
| Nc1cnc(-c2c(F)cccc2F)nc1C(=O)Nc1cnccc1N1CC[C@@H](O)[C@H](N)C1 (stereo in doubt) [Example 663, 5-Amino-2-(2,6-difluoro-phenyl)-pyrimidine-4-carboxylic acid (3-amino-4-hydroxy-3,4,5,6-tetrahydro-2H-[1,4′]bipyridinyl-3′-yl)-amide] | > 6.00 | > 6.00 | > 6.00 |  |  |  |  |
| Nc1ccc(-c2c(F)ccc(OCc3ccccc3F)c2F)nc1C(=O)Nc1cnccc1N1CCC[C@H](N)C1 [Example 465, 3-Amino-6-[2,6-difluoro-3-(2-fluoro-benzyloxy)-phenyl]-pyridine-2-carboxylic acid (3-amino-3,4,5,6-tetrahydro-2H-[1,4′]bipyridinyl-3′-yl)-amide] |  |  |  | < 1 µM | < 1 µM | < 1 µM |  |
| Cc1csc(-c2ccc(N)c(C(=O)Nc3cnccc3N3CCC[C@H](N)C3)n2)c1 [Example 451, 3-Amino-6-(4-methyl-thiophen-2-yl)-pyridine-2-carboxylic acid (3-amino-3,4,5,6-tetrahydro-2H-[1,4′]bipyridinyl-3′-yl)-amide] |  |  |  | < 1 µM | < 1 µM | < 1 µM |  |
| COc1cc(F)c(-c2ccc(N)c(C(=O)Nc3cnccc3N3CCC[C@H](N)C3)n2)cc1F [Example 477, 3-Amino-6-(2,5-difluoro-4-methoxy-phenyl)-pyridine-2-carboxylic acid (3-amino-3,4,5,6-tetrahydro-2H-[1,4′]bipyridinyl-3′-yl)-amide] |  |  |  | < 1 µM | < 1 µM | < 1 µM |  |
| COC(=O)c1nc(-c2nc(C(=O)Nc3cnccc3N3CCC[C@H](N)C3)c(N)cc2F)c(F)cc1N [Example 742, 5,5′-Diamino-6′-(3-amino-3,4,5,6-tetrahydro-2H-[1,4′]bi-pyridinyl-3′-ylcarbamoyl)-3,3′-difluoro-[2,2′]bipyridinyl-6-carboxylic acid methyl ester] | > 6.00 | > 6.00 | > 6.00 |  |  |  |  |
| CCc1cc(-c2ccncc2NC(=O)c2nc(-c3c(F)cccc3F)ccc2N)cc(N)n1 [Example 620, 3-Amino-6-(2,6-difluoro-phenyl)-pyridine-2-carboxylic acid (6′-amino-2′-ethyl-[4,4′]bipyridinyl-3-yl)-amide] | > 6.00 | > 6.00 | > 6.00 |  |  |  |  |
| Nc1ccc(-c2cccc(F)n2)nc1C(=O)Nc1cnccc1N1CCC[C@H](N)C1 [Example 712, 5-Amino-6′-fluoro-[2,2′]bi-pyridinyl-6-carboxylic acid (3-amino-3,4,5,6-tetrahydro-2H-[1,4′]bipyridinyl-3′-yl)-amide] | > 6.00 | > 6.00 | > 6.00 |  |  |  |  |
| Nc1cnc(-c2ccccc2)nc1C(=O)Nc1cnccc1N1CC[C@@H](O)[C@H](N)C1 (stereo in doubt) [Example 670, 5-Amino-2-phenyl-pyrimidine-4-carboxylic acid (3-amino-4-hydroxy-3,4,5,6-tetrahydro-2H-[1,4′]bipyridinyl-3′-yl)-amide] | > 6.00 | > 6.00 | > 6.00 |  |  |  |  |
| Cc1cc(-c2ccncc2NC(=O)c2nc(-c3cc(C(=O)NC(C)C)ccc3F)ccc2N)cc(N)n1 [Example 539, 3-Amino-6-(2-fluoro-5-isopropylcarbamoyl-phenyl)-pyridine-2-carboxylic acid (2′-amino-6′-methyl-[4,4′]bi-pyridinyl-3-yl)-amide] | > 6.00 | > 6.00 | > 6.00 |  |  |  |  |
| Nc1ccc(-c2cccc(-c3ccccc3)c2)nc1C(=O)Nc1cnccc1N1CCC[C@H](N)C1 [Example 458, 3-Amino-6-biphenyl-3-yl-pyridine-2-carboxylic acid (3-amino-3,4,5,6-tetrahydro-2H-[1,4′]bipyridinyl-3′-yl)-amide] |  |  |  | < 1 µM | < 1 µM | < 1 µM |  |
| Nc1ccc(-c2ccc(S(N)(=O)=O)cc2)nc1C(=O)Nc1cnccc1N1CCC[C@H](N)C1 [Example 480, 3-Amino-6-(4-sulfamoyl-phenyl)-pyridine-2-carboxylic acid (3-amino-3,4,5,6-tetrahydro-2H-[1,4′]bipyridinyl-3′-yl)-amide] |  |  |  | < 1 µM | < 1 µM | < 1 µM |  |
| CC(C)NC(=O)c1ccc(F)c(-c2ccc(N)c(C(=O)Nc3cnccc3-c3cc(N)nc(C(F)(F)F)n3)n2)c1 [Example 554, 3-Amino-6-(2-fluoro-5-isopropylcarbamoyl-phenyl)-pyridine-2-carboxylic acid [4-(6-amino-2-trifluoromethyl-pyrimidin-4-yl)-pyridin-3-yl]-amide] | > 6.00 | > 6.00 | > 6.00 |  |  |  |  |
| Cc1cc(-c2ccncc2NC(=O)c2nc(-c3ccccc3F)ccc2N)nc(N)n1 [Example 626, 3-amino-N-[4-(2-amino-6-methylpyrimidin-4-yl)-pyridin-3-yl]-6-(2-fluoro-phenyl)pyridine-2-carboxamide] | > 6.00 | > 6.00 | > 6.00 |  |  |  |  |
| Nc1ccc(-c2ccccc2F)nc1C(=O)Nc1cnccc1N1CCCCC1 [Example 589, 3-amino-6-(2-fluoro-phenyl)-pyridine-2-carboxylic acid (3,4,5,6-tetrahydro-2H-[1,4′]bipyridinyl-3′-yl)-amide] | > 6.00 | > 6.00 | > 6.00 |  |  |  |  |
| Cc1cc(F)c(-c2ccc(N)c(C(=O)Nc3cnccc3N3CCCC(O)C3)n2)cc1Cl (stereo not drawn) [Example 654, 3-Amino-6-(5-chloro-2-fluoro-4-methyl-phenyl)-pyridine-2-carboxylic acid (3-hydroxy-3,4,5,6-tetrahydro-2H-[1,4′]bi-pyridinyl-3′-yl)-amide] | > 6.00 | > 6.00 | > 6.00 |  |  |  |  |
| Nc1ccc(-c2c(F)cccc2F)nc1C(=O)Nc1cnccc1N1CC[C@H](O)[C@@H](N)C1 [Example 680, 3-Amino-6-(2,6-difluoro-phenyl)-pyridine-2-carboxylic acid (3-amino-4-hydroxy-3,4,5,6-tetrahydro-2H-[1,4′]bi-pyridinyl-3′-yl)-amide] | > 6.00 |  | > 6.00 |  |  |  | > 6.00 |
| CSc1ccc(-c2ccc(N)c(C(=O)Nc3cnccc3N3CCC[C@H](N)C3)n2)nc1 [Example 699, 5-Amino-5′-methylsulfanyl-[2,2′]bipyridinyl-6-carboxylic acid (3-amino-3,4,5,6-tetra-hydro-2H-[1,4′]bipyridinyl-3′-yl)-amide] | > 6.00 | > 6.00 | > 6.00 |  |  |  |  |
| N#Cc1ccsc1-c1ccc(N)c(C(=O)Nc2cnccc2N2CCC[C@H](N)C2)n1 [Example 490, 3-Amino-6-(3-cyano-thiophen-2-yl)-pyridine-2-carboxylic acid (3-amino-3,4,5,6-tetrahydro-2H-[1,4′]bipyridinyl-3′-yl)-amide] |  |  |  | < 1 µM | < 1 µM | < 1 µM |  |
| CS(=O)(=O)c1ccc(N2CCC(N)CC2)c(NC(=O)c2nccnc2N)c1 [Example 234, 3-amino-N-[2-(4-aminopiperidin-1-yl)-5-(methylsulfonyl)phenyl]-pyrazine-2-carboxamide] |  |  |  | > 25 µM | 1 to 10 µM | 10 to 25 µM |  |
| Nc1ccc(-c2ncccc2N)nc1C(=O)Nc1cnccc1N1CCC[C@H](N)C1 [Example 716, 5,3′-Diamino-[2,2′]bipyridinyl-6-carboxylic acid (3-amino-3,4,5,6-tetrahydro-2H-[1,4′]bi-pyridinyl-3′-yl)-amide] | > 6.00 | > 6.00 | > 6.00 |  |  |  |  |
| Nc1ccc(-c2c(F)cccc2F)nc1C(=O)Nc1cnccc1-c1cc(F)nc(F)c1 [Example 607, 3-amino-N-(2′,6′-difluoro-4,4′-bipyridin-3-yl)-6-(2,6-difluorophenyl)pyridine-2-carboxamide] | > 6.00 | > 6.00 | > 6.00 |  |  |  |  |
| CC(C)Oc1ccc(F)c(-c2ccc(N)c(C(=O)Nc3cnccc3N3CC[C@@H](O)[C@H](N)C3)n2)c1F (stereo in doubt) [Example 665, 3-Amino-6-(2,6-difluoro-3-isopropoxy-phenyl)-pyridine-2-carboxylic acid (3-amino-4-hydroxy-3,4,5,6-tetrahydro-2H-[1,4′]bipyridinyl-3′-yl)-amide] | > 6.00 | > 6.00 | > 6.00 |  |  |  |  |
| CC(C)NC(=O)c1ccc(F)c(-c2nc(C(=O)Nc3cnccc3N3CCC[C@H](N)C3)c(N)cc2F)c1 [Example 508, 3-Amino-5-fluoro-6-(2-fluoro-5-isopropylcarbamoyl-phenyl)-pyridine-2-carboxylic acid (3-amino-3,4,5,6-tetrahydro-2H-[1,4′]bipyridinyl-3′-yl)-amide] |  |  |  | < 1 µM | < 1 µM | < 1 µM |  |
| CS(=O)(=O)Nc1cccc(-c2nc(C(=O)Nc3cnccc3N3CCC[C@H](N)C3)c(N)cc2F)c1 [Example 498, 3-Amino-5-fluoro-6-(3-methanesulfonylamino-phenyl)-pyridine-2-carboxylic acid (3-amino-3,4,5,6-tetrahydro-2H-[1,4′]bipyridinyl-3′-yl)-amide] |  |  |  | < 1 µM | < 1 µM | < 1 µM |  |
| Nc1ccc(-c2ccccc2)nc1C(=O)Nc1cnccc1N1C[C@@H](N)C[C@H](O)C1 [Example 582, 3-Amino-6-phenyl-pyridine-2-carboxylic acid (3-amino-5-hydroxy-3,4,5,6-tetrahydro-2H-[1,4′]bipyridinyl-3′-yl)-amide] | 5.00 to 6.00 | > 6.00 | > 6.00 |  |  |  |  |
